Experiments:
mice [1] = settings: mouse, in vivo, ip
Procedure: (§1) The products to be studied were administered by the intraperitoneal route at increasing doses to batches of 10 mice. The mortality provoked by the products studied were noted during the 24 hours following administration of the product.
During the same experiments, the convulsivant threshold dose of the product is also noted, i.e. the minimum dose for which a convulsivant activity begins to be shown.
(§2) Three products of the prior art are given in this Table by way of comparison: […]

despair reaction = assay: Despair reaction (behavioral despair); format: in vivo, female mouse, CDI (Charles River); settings: one hour before the test; for Behavioral Despair (change of immobility time): immobility between 2nd and 6th minute
Procedure: This test was carried out in the female mouse, CDI (Charles River), weighing 18 to 23 g, according to the method described by Porsolt (Archives Internationales de Pharmacodynamie, 1977, 229, 327-336). The principle of this test is as follows: when a mouse is placed in a narrow recipient, filled with water, it struggles, then, after 2 to 4 mins., it becomes still and floats on its stomach, its back rounded, its rear paws drawn up under its body and it makes only a few movements necessary for maintaining its head out of the water. This reaction is called the despair reaction. Certain psychotherapeutic agents, particularly the antidepressants, extend the time during which the mouse struggles. The following protocol was chosen: The products to be studied were administered by the i.p. route one hour before the test. For the test, the animals are placed in a narrow recipient (10×10×10 cm), filled with water, up to a height of 6 cm, the temperature of the water being 24° C.±2° C. […] Each substance was studied on a batch of 10 mice. The results are the average of at least two experiments.

[2] = Acute toxicity (mortality during 24 hours, i.p.); settings: mouse, in vivo, ip
Procedure: as §1
(§3) From the results obtained, the LD 50, i.e. the dose provoking the death of 50% of the animals studied, is determined for each of the products studied.
as §2

[3] = system: ptosis induced by reserpine; assay: Antagonism of the ptosis induced by reserpine; format: in vivo, female mice CDI (Charles River); settings: Mus musculus, ip, reserpine 2 mg/kg i.v. simultaneously, 1 hour
Procedure: This test, described by GOURET (Journal de Pharmacologie (Paris), 1973, 4 (1), 105-128), was made on the female mice CDI (Charles River), weighing 20±1 g. The reserpine causes a ptosis one hour after intravenous administration thereof; certain antidepressants oppose this ptosis. The following protocol was chosen: The substances to be studied were administered by the i.p. route. […] One hour after administration of reserpine, the number of animals not presenting ptosis is noted. This test was carried out on batches of 10 mice, the results are expressed in percentage of animals not presenting ptosis and are the average of at least two experiments. By way of comparison, the results obtained with the three products of the prior art, Minaprine, CM 30070 and CM 30071 have also been indicated.

mice [4] = assay: Acute toxicity (mortality during 24 hours, i.p.); settings: mouse, in vivo, ip, 1440 min
Procedure: as §1, §3, §2

[5] = in vivo; cited from earlier work
[6] = per os; cited from earlier work

SMILES	Convulsivant threshold dose (mice [1])	LD50 at 24 h ([2]; mice, 24 hours)	ED50 [3]	LD50 at 24 h [2]	also measured
Cc1cc(-c2ccccc2)nnc1NCCCN [CM 30486, 3-(3-aminopropylamino)4-methyl 6-phenyl pyridazine]	> 200 mg/kg	> 200 mg/kg	~10 mg/kg		Behavioral Despair (change of immobility time) (despair reaction; 10 mg/kg i.p.): -20%
NCCNc1ccc(-c2ccccc2)nn1 [SR 95085]	> 200 mg/kg			> 200 mg/kg	
Cc1cc(-c2ccc(O)cc2)nnc1NCCN [SR 95073, 3-(2-Amino Ethylamino)4-Methyl 6-(4-Hydroxy Phenyl)Pyridazine]	> 200 mg/kg	> 200 mg/kg			
CCN(CC)CCNc1nnc(-c2ccccc2)cc1C [CM 30070, reference compound]	60 mg/kg		~50 mg/kg	80 mg/kg	Behavioral Despair, result in words (despair reaction; 25 mg/kg i.p.): inactive
CNCCNc1nnc(-c2ccccc2)cc1C [SR 95029, 2-(2-Methylamino Ethylamino)4-Methyl 6-Phenyl Pyridazine]	200 mg/kg	> 200 mg/kg			
NCCNc1cc(-c2ccccc2)cnn1 [SR 95086]	> 200 mg/kg			> 200 mg/kg	
Cc1cc(-c2ccccc2)nnc1NCCN(C)C [CM 30071, reference compound]	100 mg/kg		~50 mg/kg		Behavioral Despair, result in words (despair reaction; 10 mg/kg i.p.): inactive; LD50 (mice [4]): 118 (101-139) mg/kg
Cc1cc(-c2ccccc2)nnc1NCCN [CM 30099, 3-(2-Amino Ethylamino)4-Methyl 6-Phenyl Pyridazine]	200 mg/kg	> 200 mg/kg	16 mg/kg		Behavioral Despair (change of immobility time) (despair reaction; 10 mg/kg i.p.): -50%
NCCNc1nnccc1-c1ccccc1 [SR 95002]	100 mg/kg			~150 mg/kg	
Cc1cc(-c2ccccc2)nnc1NCCN1CCOCC1 [Minaprine]	35 mg/kg		5 mg/kg		type of psychotherapeutic action [5]: "disinhibitory" activity; Behavioral Despair (change of immobility time) (despair reaction; 10 mg/kg i.p.): -35%; dose at which the product proves convulsivant [6]: higher than 100 mg/kg
Cc1cc(-c2ccccc2)nnc1NCCCCN [CM 30487, 3-(4-aminobutylamino)4-methyl 6-phenyl pyridazine]	> 200 mg/kg	> 200 mg/kg			

From US4508720A, “Amino derivatives of pyridazine, and compositions thereof for the central nervous system” (Sanofi, priority 1981, dated 1985)
